Measurements: patent US11110079B2, “Mebendazole polymorph for treatment and prevention of tumors” (THE JOHNS HOPKINS UNIVERSITY, priority 2015, dated 2021)

Experiments:
[1] = tested on: GL261-luc glioma; details: GL261, single agent 50 mg/kg; control 29.5 days
Procedure: All animal studies were approved by the Animal Care and Use Committee (ACUC) of the Johns Hopkins University. The intracranial implantation of GL261-luc in the frontal lobe and D425 cells in the cerebellum of the mouse brain followed the procedure described before (3,4). […] MBZ and other benzimidazoles were prepared by either mixing the power with PBS and sesame oil (1:1, v:v) (Sigma) or by grinding the tablets to powder and resuspending in the aforementioned PBS/sesame oil mixture. Elacridar was prepared as a 10 mg/ml suspension in 0.5% hydroxypropylmethylcellulose and 0.5% Tween 80 in PBS similarly as described before (15).
Animal survival data were analyzed by GraphPad Prism 5.0. The p-values were determined by a Mantel-Cox test. A p-value under 0.05 was accepted as statistically significant.

[2] = tested on: D425 medulloblastoma; assay: Orthotopic D425 medulloblastoma xenograft model (survival); format: in vivo, mouse; details: orthotopic D425 medulloblastoma xenograft; MBZ-C 50 mg/kg five days a week, elacridar 50 mg/kg 7 days
Procedure: The intracranial implantation of GL261-luc in the frontal lobe and D425 cells in the cerebellum of the mouse brain followed the procedure described before (3,4). Five days after tumor implantation, mice were gavaged with MBZ or the other benzimidazoles at 50 mg/kg five days a week. MBZ and other benzimidazoles were prepared by either mixing the power with PBS and sesame oil (1:1, v:v) (Sigma) or by grinding the tablets to powder and resuspending in the aforementioned PBS/sesame oil mixture. Elacridar was prepared as a 10 mg/ml suspension in 0.5% hydroxypropylmethylcellulose and 0.5% Tween 80 in PBS similarly as described before (15).

[3] = in vivo; details: mouse
Procedure: Female C57BL6 mice, 5-6 weeks of age, were purchased from NCl. Animal experimentation was conducted under an approved IACUC protocol and complied with local and national guidelines. All MBZ polymorphs and tablets were administered by oral gavage at a dose of 50 mg/kg. Elacridar was administered by oral gavage at 50 mg/kg 2 hours prior to the administration of MBZ-C. Mice (3 animals/time point) were first anesthetized via intraperitoneal injection of 60 μl of a stock solution containing ketamine hydrochloride (75 mg/kg) (100 mg/ml; Ketamine HCl; Abbot Laboratories, Chicago, Ill., USA) and xylazine (7.5 mg/kg) (100 mg/ml; Xyla-ject®, Phoenix Pharmaceutical, St. Joseph, Mo., USA) in a sterile 0.9% NaCl solution. Then the blood samples were taken by puncturing and aspiring from the left heart ventricle. Blood samples were mixed with 5 mM EDTA and centrifuged at 10000 g for 5 min to obtain the plasma for further analysis.
For brain distribution studies, mice were perfused under anesthesia with 20 ml ice-cold saline supplemented with 20 μl of 0.02% heparin by injecting slowly into the left heart ventricle using a 20 gauge needle. The right atrium was cut open before to allow the blood outflow. The yellow color of kidney indicated a good perfusion quality that was essential to deplete blood from the brain tissue. In GL261 tumor-bearing mice, GL261 tumor was distinguished from the normal brain by easily recognizable differences in color and shade. GL261 tumor was separated with a scalpel and the normal brain tissue was cut from the contralateral hemisphere. All brain samples were weighed and stored at −80° C. before processing.
Blood, brain and brain tumor tissues were harvested as a function of time after MBZ administration. To compare the pharmacokinetics of MBZ polymorphs, three cohorts of mice each were administered a single dose of 50 mg/kg by oral gavage. For the initial comparison studies, plasma samples were obtained at 1, 2.5, 4, 6, 8, 15, and 24 hours after MBZ administration while brain tissue was only collected at 6 hours. For the comparison studies of polymorph C with or without ELD, plasma and brain tissue samples were obtained at 2.5, 4, and 8 hours after MBZ administration. Brain tumor tissue samples were also obtained for polymorph C alone.
MBZ and the two metabolites, 2-amino-5-benzoyl-benzimidazole (MBZ-NH2, CAS 52329-60-9) and rac dihydro mebendazole (MBZ-OH, CAS 60254-95-7), were quantified in plasma, brain and brain tumor tissue. Tissue homogenates were prepared at a concentration of 200 mg/ml in plasma prior to extraction. Mebendazole and metabolites were extracted from 50 μl of plasma or tissue homogenates with 0.1 ml of methanol containing 0.5 μg/ml of the internal standard A620223.69. After centrifugation, the supernatant (60 μl) was mixed with water (40 μl) and then transferred into autosampler vials. […] The analytes were monitored using an AB Sciex triple quadrapole™ 5500 mass-spectrometric detector (Applied Biosystems, Foster City, Calif., USA) using electrospray ionization operating in positive mode. The spectrometer was programmed to allow the [MH+] ions of MBZ, MBZ-NH2, MBZ-OH, and A620223.69 at m/z 296.0, 238.0, 298.0, and 287.2, respectively to pass through the first quadrupole (Q1) and into the collision cell (Q2). The daughter ions for MBZ (m/z 263.9), MBZ-NH2 (m/z 105.1), MBZ-OH (m/z 266.0), and A620223.69 (m/z 124.1) were monitored through the third quadrupole (Q3). Calibration curves for MBZ and metabolites were computed using the area ratio peak of the analysis to the internal standard by using a quadratic equation with a 1/x weighting function over the range of 5 to 500 ng/ml (MBZ) and 1 to 500 ng/ml (metabolites) with dilutions of up to 1:100 (v:v). If one or more concentrations were below limits of quantification, a value of ½ the limit of quantification was assigned for pharmacokinetic calculations.

[4] = tested on: HT29; assay: HT29 colon cancer flank xenograft; format: in vivo, Nude mice
Procedure: (§1) FIGS. 9A-9E. […] Two human colorectal carcinoma cell lines, HT29 and SW480, were implanted subcutaneously into the flanks of Nude mice and treated for four weeks with 50 mg/kg MBZ by oral gavage. Tumor volumes were measured twice weekly, averaged, and plotted over the course of the experiment. HT29 xenograft (FIG. 9A) and SW480 xenograft (B) growth inhibitory curves. Resected flank tumors from each group were weighed at the end of the experiment and compared to untreated control (FIG. 9C, FIG. 9D) Paraffin-embedded flank tumor tissues were stained for Ki67 proliferation marker. […] Five randomly selected fields from each slide were quantified as the percent Ki67-positive cell×100/total number of cells and represent the mean+SEM of five animals. *, P<0.05.

[5] = tested on: SW480; assay: SW480 colon cancer flank xenograft; format: in vivo, Nude mice
Procedure: as §1

[6] = tested on: polyps in the intestine of APC min/+ mice; assay: APC min/+ mouse chemoprevention study (intestinal polyps); format: in vivo
Procedure: The average number of polyps for each treatment group were graphed for the proximal, middle and distal small intestines and colon (FIG. 11A). Individual polyps were measured and categorized based on size. The average number of polyps for Sulindac versus the combiniation of MBZ+Sulindac were analyzed separately for each section of the intestine (FIG. 11B).

[7] = tested on: glioma and medulloblastoma cell lines; details: tissue culture; cited from earlier work
[8] = mice; cited from earlier work
[9] = human; cited from earlier work

With `COC(=O)Nc1nc2ccc(C(=O)c3ccccc3)cc2[nH]1` [MBZ, Mebendazole] the median survival [1] was 53 days, the median survival [2] was 53 days and the “effect of ELD on average B/P ratios of MBZ” value [3] was “elevated”. For the same compound, the “distribution in GL261 brain tumor vs contralateral normal brain tissue” value ([3]; po, 50 mg/kg) was “did not differ significantly”, the “Ki67 proliferation marker staining” value ([4]; HT29 flank tumor tissue) was “significantly less positive” and the “c-myc and Bcl-2 protein expression” value ([4]; HT29 flank xenograft lysates) was “reduction of these proteins in most cases”. The “tumor growth and proliferation” value ([4]; HT29 xenograft, 50 mg/kg MBZ oral gavage four weeks) was “inhibits growth and proliferation”, the “Ki67 proliferation marker staining” value ([5]; SW480 flank tumor tissue) was “significantly less positive” and the “c-myc and Bcl-2 protein expression” value ([5]; SW480 flank xenograft lysates) was “reduction of these proteins in most cases”. The “tumor growth and proliferation” value ([5]; SW480 xenograft, 50 mg/kg MBZ oral gavage four weeks) was “inhibits growth and proliferation”, the “formation, occurrence and size of polyps” value [6] was “reduces the formation of polyps” and the IC50 [7] was 110 to 1000 nM.

For `Cn1nnc2c(C(N)=O)ncn2c1=O` [temozolomide], the B/P ratio [8] is given as 0.408 and the “cerebrospinal fluid (CSF)/plasma ratio” value [9] is given as 0.2.
